Measurements from patent US8445492B2, “Method for inhibiting growth of cancer cells and cell telomere and diseases of cell proliferation by using heteroannelated anthraquinone derivative compounds” (National Defense Medical Center, priority 2008, dated 2013).
Read-outs that look alike come from different tables or passages of the source.

Columns and labels:
HOP-92 = experiment: in vitro test at 1.0×10^−5 M, Non-small cell lung cancer cell; format: cell-based; details: 1.0×10^−5 molal concentration (M)
T-47D = experiment: in vitro test at 1.0×10^−5 M, Breast cancer cell; format: cell-based; details: 1.0×10^−5 molal concentration (M)
SN12C = experiment: in vitro test at 1.0×10^−5 M, Kidney cancer cell; format: cell-based; details: 1.0×10^−5 molal concentration (M)
UO-31 = experiment: in vitro test at 1.0×10^−5 M, Kidney cancer cell; format: cell-based; details: 1.0×10^−5 molal concentration (M)
SK-MEL-2 [1] = experiment: in vitro test at 1.0×10^−5 M, Skin cancer cell; format: cell-based; details: 1.0×10^−5 molal concentration (M)
U251 = experiment: in vitro test at 1.0×10^−5 M, CNS cancer cell; format: cell-based; details: 1.0×10^−5 molal concentration (M)
NCI-H23 [2] = details: for TGI: NCI-H23
MOLT-4 = experiment: cells; details: Homo sapiens; for GI50: MOLT-4
NCI-H226 = experiment: cells; details: Homo sapiens; for GI50: NCI-H226
NCI-H23 [3] = experiment: cells; details: Homo sapiens; for GI50: NCI-H23
NCI-H460 = experiment: cells; details: Homo sapiens; for GI50: NCI-H460
SR = experiment: NCI DTP in-vitro dose response, Leukemia; format: cell-based
COLO 205 = experiment: NCI DTP in-vitro dose response, Colon Cancer; format: cell-based
HT29 = experiment: NCI DTP in-vitro dose response, Colon Cancer; format: cell-based
SNB-75 = experiment: NCI DTP in-vitro dose response, CNS Cancer; format: cell-based
MALME-3M = experiment: NCI DTP in-vitro dose response, Melanoma; format: cell-based
SK-MEL-2 [4] = experiment: NCI DTP in-vitro dose response, Melanoma; format: cell-based
OVCAR-3 = experiment: NCI DTP in-vitro dose response, Ovarian Cancer; format: cell-based
OVCAR-4 = experiment: NCI DTP in-vitro dose response, Ovarian Cancer; format: cell-based
OVCAR-8 = experiment: NCI DTP in-vitro dose response, Ovarian Cancer; format: cell-based
SK-OV-3 = experiment: NCI DTP in-vitro dose response, Ovarian Cancer; format: cell-based
A498 = experiment: NCI DTP in-vitro dose response, Renal Cancer; format: cell-based
MDA-MB-231/ATCC = experiment: NCI DTP in-vitro dose response, Breast Cancer; format: cell-based
MDA-MB-435 = experiment: NCI DTP in-vitro dose response, Breast Cancer; format: cell-based

## CCc1nc2ccc3c(c2[nH]1)C(=O)c1ccccc1C3=O [No. 4, 2-Ethyl-1(3)H-anthra[1,2-d]imidazole-6,11-dione]
HOP-92
  inhibition effect on cancer cell line (Table 2 value): 41.43
T-47D
  inhibition effect on cancer cell line (Table 2 value): 63.05
SN12C
  inhibition effect on cancer cell line (Table 2 value): 68.53
UO-31
  inhibition effect on cancer cell line (Table 2 value): 23.94
SK-MEL-2 [1]
  inhibition effect on cancer cell line (Table 2 value): 40.07
U251
  inhibition effect on cancer cell line (Table 2 value): 60.13
NCI-H23 [2]; Log10 Concentration −4.0
  Percent Growth: 21%
NCI-H23 [2]; Log10 Concentration −5.0
  Percent Growth: 49%
NCI-H23 [2]; Log10 Concentration −6.0
  Percent Growth: 74%
NCI-H23 [2]; Log10 Concentration −7.0
  Percent Growth: 88%
NCI-H23 [2]; Log10 Concentration −8.0
  Percent Growth: 92%
NCI-H23 [2]
  TGI: >1.00E−4
MOLT-4
  GI50: 9.31 µM
NCI-H226
  GI50: 20.8 µM
NCI-H23 [3]
  GI50: 9.17 µM
NCI-H460
  GI50: 3.07 µM

## O=C1c2ccccc2C(=O)c2c1ccc1nsnc21 [No. 22, Anthra[2,1-c][1,2,5]thiadiazole-6,11-dione]
SR; Homo sapiens, SR
  GI50: 6.89 µM
SR; Homo sapiens, SR, read-out: LC50
  CC50: > 100 µM
SR; Log10 Concentration −4.0
  Percent Growth: −22%
SR; Log10 Concentration −5.0
  Percent Growth: 41%
SR; Log10 Concentration −6.0
  Percent Growth: 99%
SR; Log10 Concentration −7.0
  Percent Growth: 112%
SR; Log10 Concentration −8.0
  Percent Growth: 108%
SR; SR
  TGI: >1.00E−4
COLO 205; COLO 205
  TGI: 3.98E−6
COLO 205; Homo sapiens, COLO 205
  GI50: 1.97 µM
COLO 205; Homo sapiens, COLO 205, read-out: LC50
  CC50: 8.04 µM
COLO 205; Log10 Concentration −4.0
  Percent Growth: −71%
COLO 205; Log10 Concentration −5.0
  Percent Growth: −66%
COLO 205; Log10 Concentration −6.0
  Percent Growth: 98%
COLO 205; Log10 Concentration −7.0
  Percent Growth: 87%
COLO 205; Log10 Concentration −8.0
  Percent Growth: 95%
HT29; HT29
  TGI: 7.36E−6
HT29; Homo sapiens, HT-29
  GI50: 2.75 µM
HT29; Homo sapiens, HT-29, read-out: LC50
  CC50: 81 µM
HT29; Log10 Concentration −4.0
  Percent Growth: −53%
HT29; Log10 Concentration −5.0
  Percent Growth: −16%
HT29; Log10 Concentration −6.0
  Percent Growth: 101%
HT29; Log10 Concentration −7.0
  Percent Growth: 105%
HT29; Log10 Concentration −8.0
  Percent Growth: 104%
SNB-75; Homo sapiens, SNB-75
  GI50: 1.42 µM
SNB-75; Homo sapiens, SNB-75, read-out: LC50
  CC50: 5.22 µM
SNB-75; Log10 Concentration −4.0
  Percent Growth: −100%
SNB-75; Log10 Concentration −5.0
  Percent Growth: −100%
SNB-75; Log10 Concentration −6.0
  Percent Growth: 77%
SNB-75; Log10 Concentration −7.0
  Percent Growth: 66%
SNB-75; Log10 Concentration −8.0
  Percent Growth: 76%
SNB-75; SNB-75
  TGI: 2.73E−6
MALME-3M; Homo sapiens, Malme-3M
  GI50: 2.37 µM
MALME-3M; Homo sapiens, Malme-3M, read-out: LC50
  CC50: 9.55 µM
MALME-3M; Log10 Concentration −4.0
  Percent Growth: −72%
MALME-3M; Log10 Concentration −5.0
  Percent Growth: −53%
MALME-3M; Log10 Concentration −6.0
  Percent Growth: 112%
MALME-3M; Log10 Concentration −7.0
  Percent Growth: 115%
MALME-3M; Log10 Concentration −8.0
  Percent Growth: 102%
MALME-3M; MALME-3M
  TGI: 4.76E−6
SK-MEL-2 [4]; Homo sapiens, SK-MEL-2
  GI50: 2.38 µM
SK-MEL-2 [4]; Homo sapiens, SK-MEL-2, read-out: LC50
  CC50: > 100 µM
SK-MEL-2 [4]; Log10 Concentration −4.0
  Percent Growth: −32%
SK-MEL-2 [4]; Log10 Concentration −5.0
  Percent Growth: −22%
SK-MEL-2 [4]; Log10 Concentration −6.0
  Percent Growth: 94%
SK-MEL-2 [4]; Log10 Concentration −7.0
  Percent Growth: 109%
SK-MEL-2 [4]; Log10 Concentration −8.0
  Percent Growth: 110%
SK-MEL-2 [4]; SK-MEL-2
  TGI: 6.42E−6
OVCAR-3; Homo sapiens, OVCAR-3
  GI50: 2.06 µM
OVCAR-3; Homo sapiens, OVCAR-3, read-out: LC50
  CC50: 28.2 µM
OVCAR-3; Log10 Concentration −4.0
  Percent Growth: −75%
OVCAR-3; Log10 Concentration −5.0
  Percent Growth: −29%
OVCAR-3; Log10 Concentration −6.0
  Percent Growth: 86%
OVCAR-3; Log10 Concentration −7.0
  Percent Growth: 110%
OVCAR-3; Log10 Concentration −8.0
  Percent Growth: 116%
OVCAR-3; OVCAR-3
  TGI: 5.59E−6
OVCAR-4; Homo sapiens, OVCAR-4
  GI50: 0.52 µM
OVCAR-4; Homo sapiens, OVCAR-4, read-out: LC50
  CC50: 4.19 µM
OVCAR-4; Log10 Concentration −4.0
  Percent Growth: −100%
OVCAR-4; Log10 Concentration −5.0
  Percent Growth: −100%
OVCAR-4; Log10 Concentration −6.0
  Percent Growth: 32%
OVCAR-4; Log10 Concentration −7.0
  Percent Growth: 94%
OVCAR-4; Log10 Concentration −8.0
  Percent Growth: 107%
OVCAR-4; OVCAR-4
  TGI: 1.76E−6
OVCAR-8; Homo sapiens, OVCAR-8
  GI50: 0.859 µM
OVCAR-8; Homo sapiens, OVCAR-8, read-out: LC50
  CC50: > 100 µM
OVCAR-8; Log10 Concentration −4.0
  Percent Growth: −38%
OVCAR-8; Log10 Concentration −5.0
  Percent Growth: −43%
OVCAR-8; Log10 Concentration −6.0
  Percent Growth: 46%
OVCAR-8; Log10 Concentration −7.0
  Percent Growth: 102%
OVCAR-8; Log10 Concentration −8.0
  Percent Growth: 105%
OVCAR-8; OVCAR-8
  TGI: 3.28E−6
SK-OV-3; Homo sapiens, SK-OV-3
  GI50: 2.26 µM
SK-OV-3; Homo sapiens, SK-OV-3, read-out: LC50
  CC50: 23.6 µM
SK-OV-3; Log10 Concentration −4.0
  Percent Growth: −97%
SK-OV-3; Log10 Concentration −5.0
  Percent Growth: −22%
SK-OV-3; Log10 Concentration −6.0
  Percent Growth: 89%
SK-OV-3; Log10 Concentration −7.0
  Percent Growth: 90%
SK-OV-3; Log10 Concentration −8.0
  Percent Growth: 102%
SK-OV-3; SK-OV-3
  TGI: 6.35E−6
A498; A498
  TGI: >1.00E−4
A498; Homo sapiens, A498
  GI50: > 100 µM
A498; Homo sapiens, A498, read-out: LC50
  CC50: > 100 µM
A498; Log10 Concentration −4.0
  Percent Growth: 84%
A498; Log10 Concentration −5.0
  Percent Growth: 100%
A498; Log10 Concentration −6.0
  Percent Growth: 96%
A498; Log10 Concentration −7.0
  Percent Growth: 104%
A498; Log10 Concentration −8.0
  Percent Growth: 105%
MDA-MB-231/ATCC; Homo sapiens, MDA-MB-231
  GI50: 2.56 µM
MDA-MB-231/ATCC; Homo sapiens, MDA-MB-231, read-out: LC50
  CC50: > 100 µM
MDA-MB-231/ATCC; Log10 Concentration −4.0
  Percent Growth: 6%
MDA-MB-231/ATCC; Log10 Concentration −5.0
  Percent Growth: 4%
MDA-MB-231/ATCC; Log10 Concentration −6.0
  Percent Growth: 81%
MDA-MB-231/ATCC; Log10 Concentration −7.0
  Percent Growth: 87%
MDA-MB-231/ATCC; Log10 Concentration −8.0
  Percent Growth: 104%
MDA-MB-231/ATCC; MDA-MB-231/ATCC
  TGI: >1.00E−4
MDA-MB-435; Homo sapiens, MDA-MB-435
  GI50: 1.91 µM
MDA-MB-435; Homo sapiens, MDA-MB-435, read-out: LC50
  CC50: 87.8 µM
MDA-MB-435; Log10 Concentration −4.0
  Percent Growth: −51%
MDA-MB-435; Log10 Concentration −5.0
  Percent Growth: −32%
MDA-MB-435; Log10 Concentration −6.0
  Percent Growth: 82%
MDA-MB-435; Log10 Concentration −7.0
  Percent Growth: 102%
MDA-MB-435; Log10 Concentration −8.0
  Percent Growth: 100%
MDA-MB-435; MDA-MB-435
  TGI: 5.23E−6
NCI-H23 [2]; Log10 Concentration −4.0
  Percent Growth: −35%
NCI-H23 [2]; Log10 Concentration −5.0
  Percent Growth: −37%
NCI-H23 [2]; Log10 Concentration −6.0
  Percent Growth: 46%
NCI-H23 [2]; Log10 Concentration −7.0
  Percent Growth: 91%
NCI-H23 [2]; Log10 Concentration −8.0
  Percent Growth: 101%
NCI-H23 [2]
  TGI: 3.59E−6
MOLT-4
  GI50: 1.59 µM
MOLT-4; MOLT-4, read-out: LC50
  CC50: > 100 µM
NCI-H226
  GI50: 15.6 µM
NCI-H226; NCI-H226, read-out: LC50
  CC50: > 100 µM
NCI-H23 [3]
  GI50: 0.802 µM
NCI-H23 [3]; NCI-H23, read-out: LC50
  CC50: > 100 µM
NCI-H460
  GI50: 1.84 µM
NCI-H460; NCI-H460, read-out: LC50
  CC50: 9.54 µM
